Laboratory results from US12325676B2, “Cationic lipid compound and composition for delivery of nucleic acids and use thereof” (Shenzhen Rhegen Biotechnology Co., Ltd., priority 2022, dated 2025).

Experiments:
[1] = Encapsulation rate of mRNA-loaded lipid nanoparticles (Ribogreen kit); format: physicochemical
[2] = as above; format: physicochemical; remark: listed apart in the source
Description: (§1) Luciferase mRNA was diluted in 10-100 mM citrate buffer at pH 4.0; the lipid components (cationic lipids shown in the present disclosure: DSPC:cholesterol:PEG lipids (DMG-PEG2000)) were dissolved in ethanol at a molar ratio of 50:10:38.5:1.5.
(§2) 3 mL of a mRNA buffer and 1 mL of a lipid solution were loaded into two 5 mL syringes respectively, and the syringes were installed on a microfluidic syringe pump. Chips were connected to the syringes and syringe pump flow rate was set. Clicking the start button of the syringe pump caused injection into the chip at a flow rate ratio of 3:1. Under observation of the color of the product at the exit of the chip, after discarding the first 5 milky white droplets (about 100 μL), the back-end sample was collected into an EP tube. The collected product was placed in a dialysis bag and dialyzed for 6 h (MWCO: 100 KDa) in 10 mM PBS (pH 7.4) intervals. Subsequently, after being concentrated by ultrafiltration to the desired concentration, the lipid nanoparticles were filtered through a 0.22 μm sterile filter and then stored at 4° C.
(§3) Tests were performed to calculate the encapsulation rate of the products according to the instructions of Ribogreen kit. Particle size and polydispersity index (PDI) detection as well as zeta potential analysis was performed on a Malvern Zetasizer nano instrument using standard assays.

[3] = Particle size, PDI and zeta potential of mRNA-loaded lipid nanoparticles (Malvern Zetasizer nano); format: physicochemical
Description: as §1, §2, §3

[4] = test system: BALB/c mice; assay: In vivo expression of luciferase mRNA delivered by LNP, tail intravenous injection, small animal imaging; details: Table 3, 5 μg mRNA, female BALB/c mice, DLin-MC3-DMA = 100
Description: LUC-mRNA-lipid nanoparticles containing 5 μg mRNA (see SEQ ID NO: 1 in the Patent Application Publication CN114380724A for the corresponding nucleotide sequence of LUC-mRNA) were injected via tail intravenous injection in 6-8 week old female BALB/c mice, prepared as in Example 19. 100 μg of D-Luciferin Potassium Salt was injected via tail intravenous injection into the mice at specific time points and assayed using the PerkinElmer Small Animal Imaging System. Fluc is commonly used in mammalian cell cultures to measure gene expression and cell viability, and it emits biological fluorescent light in the presence of the substrate […]. The basic characteristics of the mRNA used include ARCA cap structure, polyA tail length of 120 nt, and complete substitution of pseudouridine.
The effect of delivering luciferase mRNA using more cationic lipids were validated according to the methods of Example 20 and Example 21.

[5] = test system: C57BL6 mice; assay: Intratumoral injection of luciferase mRNA LNP, fluorescence of tumor and liver; format: in vivo; details: luciferase mRNA LNP 25 μL/2.5 μg intratumoral, B 16F 10 tumor in C57BL6 mice, imaging after 24 h (FIGS. 6 and 7)
Description: Different types of lipid nanoparticles encapsulating luciferase mRNA in were prepared accordance with the preparation of Example 20. Tumors were injected subcutaneously in the right abdomen of 6-8 week female C57BL6 mice at 5×10^5 B 16F 10 cells (from CAS Cell Bank, CSTR:19375.09.3101MOUTCM36)/mouse, and tumor growth was observed and recorded periodically. On the 8th day after tumor inoculation, the length (L, mm) and width (D, mm) of the tumors were measured by using a vernier caliper, and the tumor volume (V) was calculated according to the formula V=(L×D^2)/2. Mice with tumor volume in the range of 80-120 mm^3 were taken and randomly grouped, and intratumorally injected with different types of lipid nanoparticles encapsulating luciferase mRNA at the volume of 25 μL/2.5 μg. Anatomical imaging was performed after 24 h to detect the fluorescence intensity of the mouse liver and tumor (as shown in FIGS. 6 and 7). […] This indicates better in situ tumor expression and lower liver […], which is suitable for encapsulation and delivery of some tumor therapy-related nucleic acid drugs.

[6] = test system: BALB/c mice; assay: In vivo EPO protein expression after tail i.v. injection of EPO-mRNA LNP, serum ELISA; details: 6 hours after tail i.v. injection of 20 μg EPO-mRNA-lipid nanoparticles, female Balb/c mice
Description: In the example, the effects of in vivo transfection of erythropoietin (EPO) by various cationic liposomes were compared. Nanoparticles were prepared in the same manner as in Example 20, and the nucleotide sequence corresponding to the EPO mRNA used is given in CN114380724B, SEQ ID NO:2. After preparation, 20 μg of EPO-mRNA-lipid nanoparticles were injected via tail intravenous injection in 6-8 week female Balb/c mice. 6 hours later the mice were subjected to blood sampling from the eye frame. After centrifugation to separate the serum, EPO protein expression was determined using ELISA. The basic characteristics of the mRNA used include ARCA cap structure, polyA tail length of 100-120 nt, and complete substitution of pseudouridine.

[7] = test system: BALB/c mice; assay: In vivo expression of luciferase mRNA delivered by LNP, lung nebulization; details: LUC-mRNA LNP, 5 μg mRNA, compared with Lipid M and SM-102
Description: LUC-mRNA-lipid nanoparticles containing 5 μg mRNA were administrated via lung nebulization in 6-8 week old BALB/c mice, prepared as in Example 19. 100 μg of D-Luciferin Potassium Salt was injected via tail intravenous injection into the mice at specific time points and assayed using the PerkinElmer Small Animal Imaging System.

[8] = Particle size, PDI and zeta potential of mRNA-loaded lipid nanoparticles (Malvern Zetasizer nano); format: physicochemical; remark: listed apart in the source
[9] = Table 2 No. 1, Luc mRNA LNP, Compound 35/DMG-PEG2000/DSPC/cholesterol 55/2.5/22/20.5 molar, N/P 5
[10] = Table 2 No. 2, Luc mRNA LNP, Compound 35/DMG-PEG2000/DSPC/cholesterol 45/1.5/22/31.5 molar, N/P 10
[11] = Table 2 No. 3, Luc mRNA LNP, Compound 35/DMG-PEG2000/DSPC/cholesterol 45/2.5/8/44.5 molar, N/P 5
[12] = Table 2 No. 4, Luc mRNA LNP, Compound 35/DMG-PEG2000/DSPC/cholesterol 45/1.5/8/45.5 molar, N/P 10
[13] = Table 2 No. 5, Luc mRNA LNP, Compound 35/DMG-PEG2000/DSPC/cholesterol 50/1.5/15/33.5 molar, N/P 7.5
[14] = Table 2 No. 6, Luc mRNA LNP, Compound 35/DMG-PEG2000/DSPC/cholesterol 55/1.5/15/28.5 molar, N/P 10
[15] = Table 2 No. 7, Luc mRNA LNP, Compound 35/DMG-PEG2000/DOPE/cholesterol 55/2.5/22/20.5 molar, N/P 5
[16] = Table 2 No. 8, Luc mRNA LNP, Compound 35/DMG-PEG2000/DOPE/cholesterol 45/1.5/22/31.5 molar, N/P 10
[17] = Table 2 No. 9, Luc mRNA LNP, Compound 35/DMG-PEG2000/DOPE/cholesterol 45/2.5/8/44.5 molar, N/P 5
[18] = Table 2 No. 10, Luc mRNA LNP, Compound 35/DMG-PEG2000/DOPE/cholesterol 45/1.5/8/45.5 molar, N/P 10
[19] = Table 2 No. 11, Luc mRNA LNP, Compound 35/DMG-PEG2000/DOPE/cholesterol 50/1.5/15/33.5 molar, N/P 7.5
[20] = Table 2 No. 12, Luc mRNA LNP, Compound 35/DMG-PEG2000/DOPE/cholesterol 55/1.5/15/28.5 molar, N/P 10
[21] = Table 4 batch, EPO mRNA LNP prepared as Example 20
[22] = Table 1, Luciferase mRNA LNP, cationic lipid:DSPC:cholesterol:DMG-PEG2000 50:10:38.5:1.5 molar
[23] = Table 3 batch, luciferase mRNA LNP prepared as Example 20

## CCCCCCCCSCC(C)C(=O)OCCCCCN(CCO)CCCCCCCC(=O)OC(CCCCCCCC)CCCCCCCC (stereo not drawn) [Compound 35]
[1]; [9]
  Encapsulation rate (%): 85.78%
[1]; [10]
  Encapsulation rate (%): 96.98%
[1]; [11]
  Encapsulation rate (%): 97.38%
[1]; [12]
  Encapsulation rate (%): 96.70%
[1]; [13]
  Encapsulation rate (%): 96.10%
[1]; [14]
  Encapsulation rate (%): 94.46%
[1]; [15]
  Encapsulation rate (%): 90.26%
[1]; [16]
  Encapsulation rate (%): 94.11%
[1]; [17]
  Encapsulation rate (%): 94.62%
[1]; [18]
  Encapsulation rate (%): 96.36%
[1]; [19]
  Encapsulation rate (%): 92.54%
[1]; [20]
  Encapsulation rate (%): 96.16%
[1]; [21]
  Encapsulation rate (%): 96.1%
[2]; [22]
  Encapsulation rate (%): 90.4%
[2]; [23]
  Encapsulation rate (%): 96.2%
[3]; [22]
  PDI: 0.11
  Particle size (nm): 104.5 nm
  Zeta potential (mV): −2.10 mV
[3]; [23]
  PDI: 0.14
  Particle size (nm): 80.4 nm
[4]
  relative fluorescence intensity (%): 962 ± 78%
[5]
  brightness (fluorescence intensity) at the tumor: higher brightness at the tumor
  brightness (fluorescence intensity) in the liver: lower brightness in the liver
[6]
  EPO concentration: 5.73e+07 pg/mL
[7]
  fluorescent levels of mRNA expression (FIG. 2): superior to Lipid M and SM-102
[8]; [9]
  PDI: 0.193
  Particle size (nm): 100.5 nm
[8]; [10]
  PDI: 0.121
  Particle size (nm): 98.13 nm
[8]; [11]
  PDI: 0.138
  Particle size (nm): 70.02 nm
[8]; [12]
  PDI: 0.121
  Particle size (nm): 98.19 nm
[8]; [13]
  PDI: 0.051
  Particle size (nm): 85.09 nm
[8]; [14]
  PDI: 0.122
  Particle size (nm): 93.83 nm
[8]; [15]
  PDI: 0.169
  Particle size (nm): 145.0 nm
[8]; [16]
  PDI: 0.205
  Particle size (nm): 114.9 nm
[8]; [17]
  PDI: 0.173
  Particle size (nm): 92.41 nm
[8]; [18]
  PDI: 0.233
  Particle size (nm): 113.7 nm
[8]; [19]
  PDI: 0.155
  Particle size (nm): 140.2 nm
[8]; [20]
  PDI: 0.190
  Particle size (nm): 129.1 nm
[8]; [21]
  PDI: 0.12
  Particle size (nm): 79.1 nm
